Assay results taken from patent US7691417B2, “Tumor and mutation suppressing plant extract” (Clemson University Research Foundation, priority 2004, dated 2010).

Assays:
[1] = test system: Salmonella typhimurium (Strain TA 100); experiment: Ames Salmonella/microsome mutagenic test with human S9 mix and mutagen 2-AA; format: cell-based
Procedure: Mutagenicity is evaluated following the Ames Salmonella mutagenic assay, a bacterial reverse mutation test using a histidine-dependent […] mutant of Salmonella typhimurium lacking both normal DNA repair mechanisms and the ability to grow on a histidine-free medium. See, D. R. Maron and B. Ames. Mutation Research. 1980. 113:173-215, incorporated herein by reference in its entirety. As one skilled in the art understands, the test assumes that DNA-altering chemicals cause mutations and that mutagenicity is closely associated with carcinogenicity. Induced mutations are estimated by the number of bacteria capable of growing on a histidine-free medium. […]
Colonies chosen to generate overnight cultures were grown in 5 ml nutrient broth #2 (Cat No. CM 0067; Oxid Products; Basingstone, Hampshire, UK) at […] to a density of 1-2×10^9 per ml (absorbance of 0.96±0.2 at 600 nm). […]
Test compounds with the S9 mix were incubated for 30 minutes at 37° C., filter sterilized (0.2 μm Acrodisc® V45W500; Pall Galman, Ann Arbor, Mich.), and divided into two 1.5 ml duplicate aliquots. […] Each aliquot was vortexed briefly and immediately poured on Petri dishes containing the minimal glucose agar (MGA) which were allowed to solidify, then inverted and incubated at 37° C. in the dark for 48 hours, after which revertant colonies on control and test plates were counted.

[2] = test system: tumors induced by A. tumefaciens on potato discs; experiment: Potato disc tumor induction assay (Agrobacterium tumefaciens-induced tumors); format: cell-based, Solanium tuberosum L.
Procedure: Tumor suppression is evaluated following the well-known Agrobacterium tumor induction assay procedure. The assay depends on the unique property of Agrobacterium tumefaciens of inserting a portion of its tumor-inducing (Ti) plasmid into the chromosomal DNA of a wounded plant, causing tumor-like growths on the plant, a condition commonly known to those skilled in the art as Crown Gall disease. Antitumor potential is measured by tumor suppression on aseptic potato discs treated with the plant extract. See A. B. Galsky, et al. J. Nat. Cancer Inst. 1981. 67:689-692, incorporated herein by reference, in its entirety. Antitumor activity detected by the Agrobacterium assay is correlated with suppression of tumors in animals; thus, plant extracts that suppress Agrobacterium-induced tumor formation have significant potential as human anticarcinogens.
Antitumor effects of extracts were tested using the Potato Tumor Induction method of McLaughlin's laboratories. 1 A. tumefaciens was cultured in Difco Yeast Extract Medium for a period of 48-72 hours at […] for use in the assay. […]

Row | Structure (SMILES) | revertant colonies formed in the presence of 2-AA ([1]; 2-AA alone (DMSO + S9), no extract) | colonies formed with 2-AA relative to the control ([1]; 991.6 versus control 48.2) | % INHIBITION (tumor) ([2]; parallel study, dilution 1:10,000, Table 2) [%] | tumor inhibition ([2]; positive inhibitory control of the Table 1 study, camptothecin stock 100 μg/ml) [%]
1 | Nc1ccc2cc3ccccc3cc2c1 [2-AA, 2-aminianthuracene] | 991.6 | approximately 20 fold |  | 
2 | CC[C@@]1(O)C(=O)OCc2c1cc1n(c2=O)Cc2cc3ccccc3nc2-1 [camptothecin, Camptothecin] |  |  | 100 | 98.2
